Data reported in patent publication US20250375468A1, “NOVEL RAS INHIBITORS” (KHR Biotec GmbH, priority 2022, published 2025).

Legend:
Assay in all cases: NanoBit assay for RAS activation (RAS-LgBiT / CRAF RBD-SmBiT)
Assay type in all cases: cell-based
HRAS G12V = target: T1, HRAS G12V (Homo sapiens, UniProt P01112, G12V); conditions: HRAS G12V with CRAF RBD, 2 h incubation with inhibitor, serum free DMEM
T1 construct: K, N and HRAS G12V (full length) was cloned with Xho I and Bgl Il to LgBit; expressed in transfected cells
Description: (§1) FIGS. 1a) and 1b): NanoBit assay for RAS activation (KRAS G12V, NRAS G12V, HRAS G12V)
(§2) N-terminal LgBiT and C-terminal SmBIT construct was purchased from Promega and K, N and HRAS G12V (full length) was cloned with Xho I and Bgl Il to LgBit and CRAF Ras binding domain (1-149) was cloned with EcoRI and Bgl Il to SmBit. For transfections, 1 μg or 2 μg of (12 well/6 well) plasmids were transfected into cells with 0.5 mM of PEI reagent in 100 μl or 200 μl PBS. One day after transfection, cells were harvested and seeded into 96 well white plates, half area (Greiner). After an additional day the medium was changed to serum free DMEM and the cells were incubated for 2 h with inhibitors. NanoGlo assay was performed according to the manufacturer's instructions. The luminescence was measured using Tecan infinite (Tecan).

KRAS G12V = target: T2, KRAS G12V (Homo sapiens, UniProt P01116, G12V); conditions: KRAS G12V with CRAF RBD, 2 h incubation with inhibitor, serum free DMEM
T2 construct: K, N and HRAS G12V (full length) was cloned with Xho I and Bgl Il to LgBit; expressed in transfected cells
Description: as §1, §2

NRAS G12V = target: T3, NRAS G12V (Homo sapiens, UniProt P01111, G12V); conditions: NRAS G12V with CRAF RBD, 2 h incubation with inhibitor, serum free DMEM
T3 construct: K, N and HRAS G12V (full length) was cloned with Xho I and Bgl Il to LgBit; expressed in transfected cells
Description: as §1, §2

T3 sequence (P01111 whole entry G12V): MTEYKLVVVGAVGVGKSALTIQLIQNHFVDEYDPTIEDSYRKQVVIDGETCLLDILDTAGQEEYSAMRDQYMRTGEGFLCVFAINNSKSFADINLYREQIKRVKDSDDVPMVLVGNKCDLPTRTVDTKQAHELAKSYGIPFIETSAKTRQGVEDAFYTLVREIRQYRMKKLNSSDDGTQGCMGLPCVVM

CC[PH](CC)(CC)[Au][S][C@@H]1O[C@H](COC(C)=O)[C@@H](OC(C)=O)[C@H](OC(C)=O)[C@H]1OC(C)=O [Auranofin, (2,3,4,6-Tetra-O-acetyl-1-thio-β-D-glucopyranosato)(triethylphosphan)gold]
inhibits: RAS activation (NanoBit luminescence), H-RAS (HRAS G12V) | RAS activation (NanoBit luminescence), K-RAS (KRAS G12V) | RAS activation (NanoBit luminescence), N-RAS (NRAS G12V)
